Each structure is given as a SMILES string. Calls of active or inactive are those of the source. The rule behind the calls is not given here.

This passage reports Activity results from ChEMBL document CHEMBL2346566, “Small molecule inhibitors of PCNA/PIP-box interaction suppress translesion DNA synthesis” (Bioorg Med Chem, 2013).

Type in all cases: functional, cell-based
In one experiment the test system is HeLa. Nature of the experiment: Antiproliferative activity against human HeLa cells assessed as inhibition of at 10 uM after 18 hrs by assay.
Experiment [1] concerns U2OS. Put plainly: Potentiation of cisplatin-induced cytotoxicity in human U2OS cells at 15 uM after 4 days by Alamar blue assay. A general note: Alamar Blue is a resazurin reagent that responds to reducing activity.
Experiment [2] concerns U2OS. Put plainly: Cytotoxicity against human U2OS cells at 15 uM after 4 days by Alamar blue assay.

With `O=C(CCc1cc(I)c(Oc2ccc(O)cc2)c(I)c1)NCCO`, the result with HeLa was Active. Still for that read-out and setting: the result for `O=C(CCc1cc(I)c(Oc2ccc(O)cc2)c(I)c1)NCC1CCCO1` (configuration not stated) reads “Active”. For the compound `CC(=O)NC[C@@H](N)Cc1cc(I)c(Oc2ccc(O)cc2)c(I)c1`, the result in the experiment with U2OS [1] and in the experiment with HeLa was Active. Besides, the outcome in the experiment with U2OS [2] was inactive. Regarding `CNC(=O)CCc1cc(I)c(Oc2ccc(O)cc2)c(I)c1`, the result in the experiment with HeLa was Active. For the compound `O=C(Cc1cc(I)c(Oc2ccc(O)c(I)c2)c(I)c1)N1CCOCC1`, the result with HeLa was Active. The same measure, in the same setting: the result for `CC(C)NC(=O)N[C@H](CO)Cc1cc(I)c(Oc2ccc(O)cc2)c(I)c1` reads “Active”; that for `CS(=O)(=O)NC(=O)Cc1cc(I)c(Oc2ccc(O)c(I)c2)c(I)c1`, “Active”. Consider `N[C@H](CO)Cc1cc(I)c(Oc2ccc(O)cc2)c(I)c1`, for which the result in the experiment on U2OS [1] and in the experiment with HeLa was Active. In the experiment on U2OS [2], the outcome was inactive. `O=C(Cc1cc(I)c(Oc2ccc(O)c(I)c2)c(I)c1)NS(=O)(=O)c1ccccc1`: in the experiment with HeLa, the outcome was Active.

`N[C@H](CNC(=O)CCN1CCOCC1)Cc1cc(I)c(Oc2ccc(O)cc2)c(I)c1`: in the experiment on HeLa, the outcome was Active. Regarding `CNC(=O)Cc1cc(I)c(Oc2ccc(O)c(I)c2)c(I)c1`, the outcome in the experiment on U2OS [1] and in the experiment with HeLa was Active. Further, the outcome with U2OS [2] was inactive.

On to `CS(=O)(=O)NC[C@@H](N)Cc1cc(I)c(Oc2ccc(O)cc2)c(I)c1`, for which, in the experiment on HeLa, the result was Active. Regarding `COC(=O)N[C@H](CO)Cc1cc(I)c(Oc2ccc(O)cc2)c(I)c1`, the outcome in the experiment on HeLa was Active. Same read-out and setting: the result for `CC(=O)N[C@H](CO)Cc1cc(I)c(Oc2ccc(O)cc2)c(I)c1` reads “Active”.

Consider `CCOCCNC(=O)CCc1cc(I)c(Oc2ccc(O)cc2)c(I)c1`, for which, in the experiment on HeLa, the outcome was Active. On the same count and under the same terms, the result for `CN(C)C(=O)Cc1cc(I)c(Oc2ccc(O)c(I)c2)c(I)c1` reads “Active”. With `CC(C)NC(=O)NC[C@@H](N)Cc1cc(I)c(Oc2ccc(O)cc2)c(I)c1`, the result in the experiment on U2OS [1] and with HeLa was Active. The result in the experiment with U2OS [2] was inactive. With `N[C@H](CNC(=O)N1CCOCC1)Cc1cc(I)c(Oc2ccc(O)cc2)c(I)c1`, the result in the experiment on HeLa was Active. Still for that read-out and setting: the result for `O=C(CCc1cc(I)c(Oc2ccc(O)cc2)c(I)c1)N1CCOCC1` reads “Active”.
